Like-named read-outs stand apart in the source and are kept apart here. Values belong to the molecule of their own block, whether it stands above or below them.
Legend:
[1] = system: A549 human lung cancer cells; assay: Trypan Blue cell viability/growth assay, A549 cells; type: cell-based; conditions: for Potentiation of anti-cancer activity by esterization: ester vs original acid; for fold more potent than original acid, growth of A549 cells: ester vs original acid (ARC, CA or Ketorolac)
Protocol: (§1) A. Cell Lines: Human lung cancer (A549) cells carrying an oncogenic K-RAS mutant or murine melanoma (B16F10) cells
(§2) B. Cell seeding in 96 well plate: In culture medium D-MEM with or without 10% fetal bovine serum.
(§3) C. Inhibitor Stocks in DMSO (100 mM)
(§4) D. Trypan Blue Assay for Cell Viability/Growth (4): The most commonly used MTT assay for cell viability/growth is not feasible for cells treated with triazolyl derivatives, mainly because these compounds are reduced by mitochondrial reductase in viable cells, just like MTT, and converted to a purple compound which would clearly interfere with the colorimetry on which MTT assay depends. Thus, a more classic method called Trypan Blue exclusion assay should be used for determining cell viability/growth of cells treated with all triazolyl derivatives. In this assay, only dead cells are stained with Trypan Blue, while viable cells exclude this blue dye.
(§5) The assay was conducted as previously described. Briefly, A549 or B16F10 cells were seeded at 2×10^4 cells/well in 96 well plate for 24 hrs in the above medium, and then treated with one of the tested compounds in the same medium for 96 hrs. Cell were detached from the plate by a protease called accutase, and stained with Trypan blue, and the number of unstained (viable) cells was counted in a hemocytometer.

EMT6 breast cancer cells = assay: Cell-permeability (intracellular uptake) assay by HPLC; type: in vitro ADME; conditions: for fold more cell-permeable than original acid: 100 uM, uptake during first 1 hr, lower bound
Protocol: For measuring the uptake of both original acids and their esters into cells, a drug-resistant breast cancer cell line (EMT6) was chosen, as it survives the treatment with either acids or their esters at 100 uM for 24 hrs. The uptake of each compound (100 uM) into 1×10^5 cells mainly during the first 1 hr was quantitated by separation of either original acids or their esters taken by cells through HPLC column chromatography, and the amount of each compound was estimated by photometry at the wavelength 322 nm.

recombinant human COX-2 = target: T1, recombinant human COX-2 (Homo sapiens, UniProt P35354); assay: In vitro anti-COX-2 activity; type: biochemical
T1 sequence (P35354 18-604): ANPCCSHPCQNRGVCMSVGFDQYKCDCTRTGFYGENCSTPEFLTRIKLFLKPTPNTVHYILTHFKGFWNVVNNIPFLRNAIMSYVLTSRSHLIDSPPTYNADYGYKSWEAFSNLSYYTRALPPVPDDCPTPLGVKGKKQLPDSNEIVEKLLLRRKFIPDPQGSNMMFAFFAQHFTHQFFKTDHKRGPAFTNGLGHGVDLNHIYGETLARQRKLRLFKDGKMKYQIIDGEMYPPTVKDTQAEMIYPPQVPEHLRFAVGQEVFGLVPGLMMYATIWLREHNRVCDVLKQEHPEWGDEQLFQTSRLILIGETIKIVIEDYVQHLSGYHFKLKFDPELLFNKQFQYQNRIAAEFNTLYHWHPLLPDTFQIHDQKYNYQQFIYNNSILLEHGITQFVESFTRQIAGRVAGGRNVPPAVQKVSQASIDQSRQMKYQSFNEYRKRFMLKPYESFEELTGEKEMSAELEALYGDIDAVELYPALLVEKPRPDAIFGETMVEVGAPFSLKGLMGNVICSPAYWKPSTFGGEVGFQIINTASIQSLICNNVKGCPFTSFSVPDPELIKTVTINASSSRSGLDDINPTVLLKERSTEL
Protocol: The effect of Ketorolac and PRC-15K (both in racemic form) on COX-2 was assayed in vitro, essentially according to the procedure previously published (5). Briefly, the recombinant human COX-2 was treated with either Ketorolac or PRC-15K at concentrations ranging 5-200 nM for 2 or 5 min (depending on the chemical nature of the test compounds) at room temperature in the presence of arachidonic acid, to measure the remaining COX-2 activity at 590 nm. The COX-2 activity without these test chemicals was used as the negative control for calculating their anti-COX-2 activity.

PAK1 = target: T2, PAK1 (Homo sapiens, UniProt Q13153); assay: Anti-PAK1 activity in cell culture, Macaroni-Western (IP) ATP-Glo kinase assay; type: cell-based
T2 construct: endogenous in cells; host or cells: A549 human lung cancer cells
T2 sequence (Q13153 whole entry): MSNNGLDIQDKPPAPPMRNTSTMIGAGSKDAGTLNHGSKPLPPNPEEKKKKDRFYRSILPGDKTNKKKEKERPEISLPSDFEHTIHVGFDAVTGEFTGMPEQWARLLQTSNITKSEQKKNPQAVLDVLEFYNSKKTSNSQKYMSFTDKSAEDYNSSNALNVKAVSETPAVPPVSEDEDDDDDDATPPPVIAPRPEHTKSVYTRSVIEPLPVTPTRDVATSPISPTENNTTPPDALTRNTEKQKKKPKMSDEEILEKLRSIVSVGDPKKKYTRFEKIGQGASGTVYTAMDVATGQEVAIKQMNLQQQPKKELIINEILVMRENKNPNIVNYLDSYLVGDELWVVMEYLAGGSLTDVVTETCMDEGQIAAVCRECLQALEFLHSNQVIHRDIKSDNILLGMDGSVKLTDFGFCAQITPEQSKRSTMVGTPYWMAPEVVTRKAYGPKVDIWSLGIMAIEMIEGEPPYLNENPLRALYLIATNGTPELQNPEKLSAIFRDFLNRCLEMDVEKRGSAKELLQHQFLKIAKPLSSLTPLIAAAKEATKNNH
Protocol: A. Cell line: Human lung cancer (A549) cells.
B. Cell seeding in 6-well plate with the culture medium (D-MEM).
C. Inhibitor Stocks in DMSO (100 mM).
D. “Macaroni-western” (IP) ATP-Glo kinase assay: The kinase activity of PAK1 in A549 (or B16F100 cells was measured by a method called “Macaroni-Western” (IP) ATP-Glo kinase assay. Briefly, cells (2×10^5 cells/mL) were pre-cultured on 6-well plate for 24 hrs in the medium. Then cells were treated with a test compound in the same medium for additional 24 hrs. Cells were disrupted by lysis buffer containing 50 mM Tris-HCl pH 7.5 and 150 mM NaCl and 1% Triton-X. For the immunoprecipitation (IP) of PAK1, the cleared cell lysates were incubated with anti-PAK1 IgG (1:50 dilution) and protein A-agarose beads for 1-2 hrs in cold room with continuous shaking by a rotary mixer (Nissin, Suginami-ku, Tokyo, Japan). The resultant IP (PAK1) from each lysate was incubated with ATP-Glo kinase assay kit (Promega) in the presence of ATP and MBP (myelin basic protein) for 1 hr at 37° C., and the remaining ATP level was measured by the ATP-dependent Luciferin-Luciferase reaction which eventually generates a luminescence. The final suspension was centrifuged, and the supernatant was transferred to 96-well plate for reading. Luminescence was recorded by MTP-880Lab microplate reader (Corona, Hitachinaka-ku, Ibaraki, Japan) with an integration time of 0.5 s per well.

melanoma (B16F10) cells [2] = assay: Trypan Blue cell viability/growth assay, B16F10 cells; type: cell-based, murine
Protocol: as §1, §2, §3, §4, §5

[3] = ester vs parent acid (CA or UA); cited from earlier work
melanoma (B16F10) cells [4] = assay: Melanin content assay (PAK1-dependent melanogenesis), B16F10 cells; type: cell-based, murine; conditions: alpha-MSH 100 nM stimulated; read-out: IC50 against the PAK1-dependent melanogenesis of melanoma (B16F10) cells
Protocol: A. Cell line: Murine melanoma (B16F10) cells.
B. Cell seeding in 96 well plate: In culture medium D-MEM supplemented with 10% […] FBS (fetal bovine serum) and 1% penicillin/streptomycin (10,000 U/mL and 100 μg/mL). 2×10^4 cells were seeded in each well of 96 well plate in the medium at 37° C. for 24 hrs in a humidified atmosphere containing 5% CO2.
C. Inhibitor Stocks in DMSO (100 uM).
E. Melanin content Assay (4): The assay was performed as previously described. Cells were seeded in a 96-well plate at a density 5×10^4 cells/well in culture medium containing D-MEM supplemented with 10% FBS, 1% penicillin/streptomycin, and cultured for 24 hrs. Then, the cells were treated with a melanogenic stimulating hormone called α-MSH (100 nM), and treated with one of tested compounds for 48 hrs. After the medium was removed, cells were dissolved in 100 μL of 1 N NaOH. The mixture was heated at 90° C. for 1 hr, and the melanin content was estimated by reading the absorbance at 405 nm.

[5] = system: Human follicle dermal papilla (HFDP) cells; assay: Hair cell growth promoting (anti-alopecia) Trypan Blue assay, HFDP cells; type: cell-based
Protocol: A. Cell line: Human follicle dermal papilla (HFDP) cells.
B. Cell seeding in 96 well plate: In culture medium D-MEM medium containing 50 mL of papilla cell growth medium (PCGM), 0.5 mL of fetal calf serum (FSC), 0.5 mL of BPE, 0.25 mL of Cyp, and 0.25 mL of ITT in 51.5 mL total volume.
C. Inhibitor Stocks in DMSO (100 μM).
D. Trypan Blue assay for cell viability/growth (4): HFDP cells were collected and diluted in medium containing Dulbecco's modified minimum essential medium (D-MEM) and 10% fetal bovine serum (FBS) at cell density of 1×10^4 cell/mL. Then, 200 μL of cell suspension (2,000 cells/well) was transferred into each well of collagen-coated 96 well plate, and cells were incubated for 37° C., under 5% CO2 for 3 days. The medium was removed, and 200 μL of samples prepared in D-MEM only was added. After 4 days incubation, cell were detached from the plate by a protease called accutase, and stained with Trypan blue, and the number of unstained (viable) cells was counted in a hemocytometer.

[6] = Homo sapiens, growth of A459 lung cancer cell line (so in the source), read-out: IC50 of Original Acids
[7] = 96 hrs treatment, Trypan Blue exclusion, read-out: IC50 against the growth of A549 human lung cancer cells

SMILES: O=C(c1ccccc1)c1ccc2n1CCC2C(=O)O (racemic) [Ketorolac, 5-benzoyl-2,3-dihydro-1H-pyrrolizine-1-carboxylic acid, reference compound]
IC50 ([1]; Homo sapiens, A549, racemic mixture, our unpublished observation, read-out: IC50 against the growth of human cancer cells): 13000 nM
IC50 [1, 6]: 13000 nM

SMILES: CC(C)=CCc1cc(C=CC(=O)O)cc(CC=C(C)C)c1O [ARC, 3,5-diprenyl-4-hydroxycinnamic acid, reference compound]
IC50 [1, 6]: 25000 nM

SMILES: O=C(O)/C=C/c1ccc(O)c(O)c1 [CA, caffeic acid, reference compound]
IC50 [1, 6]: 100000 nM

SMILES: O=C(/C=C/c1ccc(O)c(O)c1)OCCc1ccccc1 [CAPE, caffeic acid phenethyl ester]
fold more potent (cell-permeable) than parent acid [3]: 10 fold

Now from value to molecule, other results behind:

fold more cell-permeable than original acid (EMT6 breast cancer cells): at least 10 fold
IC50 (recombinant human COX-2; in vitro, racemic form, read-out: IC50 against human COX-2): 6 nM
fold more potent than Ketorolac, anti-COX-2 (recombinant human COX-2; vs Ketorolac): over 20 fold
inhibition at 0.07 µM (PAK1; at 70 nM): ~50%
fold more potent than Ketorolac, anti-PAK1 activity in cell culture (PAK1; vs Ketorolac): over 30 fold
IC50 ([1]; A549, 50/50 racemic mixture, growth of human cancer cells, read-out: IC50): ~24 nM
IC50 ([1]; Homo sapiens, A549, 96 hrs treatment, Trypan Blue exclusion, read-out: IC50 against the growth of A549 human lung cancer cells): 24 nM
IC50 ([1]; Homo sapiens, growth of A459 lung cancer cell line (so in the source), read-out: IC50 of Esters): 24 nM
IC50 (melanoma (B16F10) cells [2]; Mus musculus, B16-F10, read-out: IC50 against the PAK1-independent growth of melanoma (B16F10) cells): 5 nM
SMILES: COc1ccccc1-n1cc(COC(=O)C2CCn3c(C(=O)c4ccccc4)ccc32)nn1 (racemic) [PRC-15K]
Potentiation of anti-cancer activity by esterization [1]: (>500 fold)
fold more potent than original acid, growth of A549 cells [1]: over 500 fold
times potent as much as compound 7 ([1]; vs racemic ketorolac): more than 500 times
fold more potent than Ketorolac, growth of B16F10 cells (melanoma (B16F10) cells [2]; vs Ketorolac): over 6000 fold

fold more cell-permeable than original acid (EMT6 breast cancer cells): at least 8 fold
IC50 (melanoma (B16F10) cells [4]): 250 nM
anti-PAK1 activity in cell culture, inhibition (PAK1; at 1 mM): around 45%
IC50 [1, 7]: 250 nM
SMILES: COc1ccccc1-n1cc(COC(=O)/C=C/c2cc(CC=C(C)C)c(O)c(CC=C(C)C)c2)nn1 [PRC-15A]
Potentiation of anti-cancer activity by esterization [1]: (100 fold)
fold more potent than original acid, growth of A549 cells [1]: 100 fold
ED for the growth of human hair (HFDP) cells ([5]; growth promotion): 20 nM
fold more potent than ARC, growth of HFDP cells ([5]; vs ARC): 1000 fold

fold more cell-permeable than original acid (EMT6 breast cancer cells): at least 20 fold
fold more cell-permeable than original acid, probable upper estimate (EMT6 breast cancer cells; 'probably up to'): up to 70 fold
IC50 (melanoma (B16F10) cells [4]): 225 nM
anti-PAK1 activity in cell culture, inhibition (PAK1; at 1 μM): around 35%
IC50 [1, 7]: 225 nM
SMILES: COc1ccccc1-n1cc(COC(=O)/C=C/c2ccc(O)c(O)c2)nn1 [PRC-15C]
Potentiation of anti-cancer activity by esterization [1]: (>400 fold)
fold more potent than original acid, growth of A549 cells [1]: over 400 fold

Source: US10058618B2, “PAK1-blocking 1,2,3-triazolyl esters” (priority 2016, dated 2018)
